Measurements reported in PubChem BioAssay (NCI).
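1) Cells in 96-well plates. 2) Compound, 48 h, 5 concentrations. 3) Linear interpolation between surrounding doses. 4) Unreached endpoint = highest concentration. GI50 = concentration required for 50% inhibition of growth. The concentration for full growth arrest is given as TGI.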

Tests used:
Assay in all cases: NCI-60 cell line screen, 48 h
[1] = tested on: KM20L2 colon
[2] = tested on: LXFL 529 NSCLC
[3] = tested on: XF 498 CNS
[4] = tested on: MDA-N
[5] = tested on: HOP-18 NSCLC
[6] = tested on: RXF-631 renal
[7] = tested on: SNB-78 CNS

Row | SMILES | TGI [1] | TGI [2] | TGI [3] | TGI [4] | TGI [5] | TGI [6] | TGI [7] | GI50 [4]
1 | CC(=O)Nc1cc(N(CCOS(C)(=O)=O)CCOS(C)(=O)=O)ccc1N=O | > 100 µM | > 100 µM | > 100 µM | – | – | – | – | –
2 | COc1cc(OC)c(/C=C\c2ccnc3ccccc23)c(OC)c1 | – | – | – | 2.03 µM | – | – | – | –
3 | CCCCCCCCOCC(O)COC(=O)CCCCCCC (stereo not given) | > 100 µM | > 100 µM | – | – | > 100 µM | > 100 µM | – | –
4 | O=CNc1ncn[nH]1 | – | – | – | > 100 µM | – | – | – | –
5 | CCOC(=O)CSC(=O)NCCCl | > 100 µM | > 100 µM | – | – | – | – | > 100 µM | –
6 | NS(=O)(=O)c1ccc(NC2=CC(=O)C(=O)c3ccccc32)cc1 | > 100 µM | > 100 µM | – | – | > 100 µM | – | > 100 µM | –
7 | CC1=CC(=C(c2ccc(N)cc2)c2ccc(N)cc2)C=CC1=N | 17.6 µM | 13.6 µM | 10.3 µM | > 40.9 µM | – | – | 9.89 µM | –
8 | CC(/C(=N\Nc1ccccc1)c1ccc(O)cc1)C1C(=O)Oc2ccccc21 (stereo not given) | > 100 µM | > 100 µM | – | – | – | – | – | –
9 | COc1c(C(=O)c2ccc([N+](=O)[O-])cc2)cc(C(C)(C)C)cc1C(C)(C)C | > 100 µM | > 100 µM | 55.1 µM | – | > 100 µM | – | > 100 µM | –
10 | CCN(CC)CCOc1ccccc1/C=C/c1noc2ccccc12 | – | – | – | 24.1 µM | – | – | – | –
11 | COC(=O)C(C(=O)C(=O)Nc1nc(=S)[nH][nH]1)c1csc(-n2nc(-c3ccccc3)cc2-c2ccccc2)n1 (stereo not given) | > 100 µM | > 100 µM | – | – | – | – | > 100 µM | –
12 | COC(=O)/C=C(\C(=O)OC)c1c2c3c(cc(OC)c(OC)c3c3ccccc13)CCN2C | > 100 µM | > 100 µM | – | – | > 100 µM | > 100 µM | > 100 µM | –
13 | CN(C)CCNC(=O)C(C)(C)Oc1ccc(C(=O)c2ccc(Cl)cc2)cc1Cl | – | – | – | 19.8 µM | – | – | – | 6.48 µM
14 | COC(=O)C(CC(C)C)NC(=O)NC12CC3CC(CC(F)(C3)C1)C2 (stereo not given) | > 100 µM | > 100 µM | – | – | – | > 100 µM | > 100 µM | –
15 | CC1(C)CCC2=C(O1)c1ccccc1C(=O)C2=O | – | – | – | 0.363 µM | – | – | – | –
16 | CC1CC(=O)Nc2ccccc2N1C(=O)CN1CCC(CCCCN(C)C)CC1 (stereo not given) | > 100 µM | > 100 µM | – | – | > 100 µM | > 100 µM | > 100 µM | –
17 | C[C@]12CC[C@H](O)C[C@H]1CC[C@@H]1[C@@H]2CC[C@]2(C)[C@@H](C3=CC(=O)OC3)[C@@H](O)C[C@]12O | – | – | – | 5.7 µM | – | – | – | –

Row | SMILES | TGI [1] | TGI [2] | TGI [3] | TGI [4] | TGI [5] | TGI [6] | TGI [7] | GI50 [4]
18 | O=C(c1ccccc1)[C@H]1Nc2ccc(Cl)cc2C2c3ccccc3CC21 (stereo not given in full) | > 100 µM | > 100 µM | 72.5 µM | – | – | > 100 µM | > 100 µM | –
19 | CC1C[C@H](C)CC(C(O)CC2CC(=O)N(Cc3ccccc3)C(=O)C2)C1O (stereo not given in full) | > 100 µM | > 100 µM | – | – | > 100 µM | – | > 100 µM | –
20 | O=C(c1ccccc1)N1C2CCC1C(C(F)(F)F)=C2C(F)(F)F | > 100 µM | > 100 µM | – | – | > 100 µM | > 100 µM | > 100 µM | –
21 | CNCc1cc(OC)ccc1-c1ccc(OC)c(OC)c1OC | > 100 µM | > 100 µM | > 100 µM | – | > 100 µM | > 100 µM | > 100 µM | –
22 | CC1=NOC(=O)/C1=C/c1cccc2ccccc12 | > 100 µM | > 100 µM | – | – | > 100 µM | – | > 100 µM | –
23 | NC(=O)c1ccc(NN=O)nc1 | – | – | – | > 100 µM | – | – | – | –
24 | COC(=O)C(Cc1cc(OC)c(OC)c(OC)c1)c1ccc(OC)cc1 (stereo not given) | > 100 µM | > 100 µM | – | – | > 100 µM | > 100 µM | > 100 µM | –
25 | Cc1ccc(NC(=O)C(=O)C(C#N)c2nc(-c3ccc(-c4ccccc4)cc3)cs2)c(C)c1 (stereo not given) | > 100 µM | > 100 µM | – | – | > 100 µM | – | > 100 µM | –
26 | O=C1c2ccccc2C(=O)N1CCN(CCN1C(=O)c2ccccc2C1=O)Cn1cccn1 | > 100 µM | > 100 µM | > 100 µM | – | – | > 100 µM | > 100 µM | –
27 | CC(=O)c1ccc(OCC(O)CO)cc1 (stereo not given) | > 100 µM | > 100 µM | – | – | > 100 µM | > 100 µM | > 100 µM | –
28 | Cc1cc2c(cc1C)[n+](=O)c(C(=O)C/C(=N/OCCCc1ccccc1)C(=O)Nc1cc(Cl)ccc1Cl)c(C)n2[O-] | > 100 µM | > 100 µM | > 100 µM | – | > 100 µM | > 100 µM | > 100 µM | –
29 | OCC(O)C(O)C(O)c1nn(-c2ccc(Cl)cc2)c2nc3cc(Cl)c(Cl)cc3nc12 (stereo not given) | > 100 µM | > 100 µM | 27.4 µM | – | > 100 µM | – | 76.9 µM | –
30 | O=C(O)C[C@H]1CCCCC12CCOC2=O (stereo not given in full) | > 100 µM | > 100 µM | > 100 µM | – | > 100 µM | > 100 µM | > 100 µM | –
31 | NNC(=O)CNC(=O)c1ccc(Cl)cc1Cl | > 100 µM | > 100 µM | > 100 µM | – | > 100 µM | – | – | –
32 | N#Cc1c2c(c(N=P(c3ccccc3)(c3ccccc3)c3ccccc3)n3c1nc1ccccc13)CCCC2 | > 100 µM | > 100 µM | – | – | > 100 µM | > 100 µM | 97.3 µM | –
33 | CC1SC2=NC3=C(c4ccccc4C3=O)C(c3ccc(Cl)cc3)N2C1=O (stereo not given) | > 100 µM | > 100 µM | > 100 µM | – | – | > 100 µM | – | –
34 | CNC(=O)OCc1c2ccncc2c(C)c2c1[nH]c1ccccc12 | – | – | – | 1.73 µM | – | – | – | –
